Tests used:
[1] = DRUGMATRIX: Interleukin IL-1 radioligand binding (ligand: [125I] interleukin 1beta); format: cell membranes, Membrane; settings: nih3t3; Not Active = under 50% inhibition at 10 µM
[2] = target: T1, Cytochrome P450 2A6 (Homo sapiens, UniProt P11509); settings: bti-tn-5b1-4; note: in other assays of this panel Not Active means under 50% inhibition at 10 µM
T1 sequence (P11509 whole entry): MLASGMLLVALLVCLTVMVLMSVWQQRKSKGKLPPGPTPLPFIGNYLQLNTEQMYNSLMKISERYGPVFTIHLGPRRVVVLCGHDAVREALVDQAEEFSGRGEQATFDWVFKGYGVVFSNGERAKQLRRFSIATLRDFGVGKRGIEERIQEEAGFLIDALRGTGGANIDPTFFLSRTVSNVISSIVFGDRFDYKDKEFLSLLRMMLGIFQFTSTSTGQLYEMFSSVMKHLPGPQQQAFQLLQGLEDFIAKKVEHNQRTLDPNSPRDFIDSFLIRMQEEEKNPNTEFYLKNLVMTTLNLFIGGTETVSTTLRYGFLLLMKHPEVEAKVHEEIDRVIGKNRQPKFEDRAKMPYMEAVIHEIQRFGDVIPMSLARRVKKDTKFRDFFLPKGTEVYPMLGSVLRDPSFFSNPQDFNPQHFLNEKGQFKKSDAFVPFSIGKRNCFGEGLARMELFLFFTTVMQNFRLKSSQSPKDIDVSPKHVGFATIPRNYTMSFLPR

[3] = target: Mitogen-activated protein kinase 1 (Homo sapiens, UniProt P28482); test: DRUGMATRIX: Protein Serine/Threonine Kinase, ERK2 enzyme inhibition (substrate: Myelin Basic Protein); parameters: species or system Escherichia coli; settings: Not Active = under 50% inhibition at 10 µM
[4] = target: T2, Alpha-2A adrenergic receptor (Homo sapiens, UniProt P08913); format: cell membranes, Sf9, Membrane; settings: sf9; note: in other assays of this panel Not Active means under 50% inhibition at 10 µM
T2 sequence (P08913 whole entry): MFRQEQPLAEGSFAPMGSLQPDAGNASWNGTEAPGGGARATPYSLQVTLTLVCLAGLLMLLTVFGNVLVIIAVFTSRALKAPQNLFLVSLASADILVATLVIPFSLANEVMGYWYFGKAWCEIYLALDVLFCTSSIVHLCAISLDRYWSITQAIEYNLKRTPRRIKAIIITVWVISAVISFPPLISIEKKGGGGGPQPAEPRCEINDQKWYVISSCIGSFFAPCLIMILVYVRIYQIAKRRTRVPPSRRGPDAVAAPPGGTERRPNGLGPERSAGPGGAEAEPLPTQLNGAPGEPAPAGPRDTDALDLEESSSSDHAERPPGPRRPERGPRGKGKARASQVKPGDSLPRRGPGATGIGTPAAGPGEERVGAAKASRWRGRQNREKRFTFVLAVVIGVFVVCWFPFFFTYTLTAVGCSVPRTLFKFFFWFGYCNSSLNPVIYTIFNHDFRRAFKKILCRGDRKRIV

[5] = target: C-C chemokine receptor type 5 (Homo sapiens, UniProt P51681); format: cell membranes, HEK293, Membrane; settings: hek293; note: in other assays of this panel Not Active means under 50% inhibition at 10 µM
[6] = target: T3, Caspase-1 (Homo sapiens, UniProt P29466); parameters: species or system Escherichia coli;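 note: Caspase-1 enzyme inhibition assay with a peptide substrate; in other assays of this panel Not Active means under 50% inhibition at 10 µM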
T3 sequence (P29466 whole entry): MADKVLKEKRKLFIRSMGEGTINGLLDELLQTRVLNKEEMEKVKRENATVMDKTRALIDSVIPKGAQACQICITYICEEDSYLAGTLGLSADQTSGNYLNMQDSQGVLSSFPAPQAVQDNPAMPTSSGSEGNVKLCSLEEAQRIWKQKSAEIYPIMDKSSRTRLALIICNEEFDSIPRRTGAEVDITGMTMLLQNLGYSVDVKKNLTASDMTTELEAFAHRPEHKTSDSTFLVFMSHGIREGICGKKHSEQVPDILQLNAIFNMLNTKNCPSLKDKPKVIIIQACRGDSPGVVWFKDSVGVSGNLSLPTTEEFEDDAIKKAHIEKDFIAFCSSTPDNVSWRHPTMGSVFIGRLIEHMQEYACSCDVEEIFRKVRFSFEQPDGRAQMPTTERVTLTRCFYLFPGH

[7] = DRUGMATRIX: beta-Lactamase enzyme inhibition (substrate: Nitrocefin); parameters: species or system Bacillus cereus; settings: Not Active = under 50% inhibition at 10 µM
[8] = target: Matrix metalloproteinase-9 (Homo sapiens, UniProt P14780); format: cell-based
Chain of Matrix metalloproteinase-9 (P14780 whole entry): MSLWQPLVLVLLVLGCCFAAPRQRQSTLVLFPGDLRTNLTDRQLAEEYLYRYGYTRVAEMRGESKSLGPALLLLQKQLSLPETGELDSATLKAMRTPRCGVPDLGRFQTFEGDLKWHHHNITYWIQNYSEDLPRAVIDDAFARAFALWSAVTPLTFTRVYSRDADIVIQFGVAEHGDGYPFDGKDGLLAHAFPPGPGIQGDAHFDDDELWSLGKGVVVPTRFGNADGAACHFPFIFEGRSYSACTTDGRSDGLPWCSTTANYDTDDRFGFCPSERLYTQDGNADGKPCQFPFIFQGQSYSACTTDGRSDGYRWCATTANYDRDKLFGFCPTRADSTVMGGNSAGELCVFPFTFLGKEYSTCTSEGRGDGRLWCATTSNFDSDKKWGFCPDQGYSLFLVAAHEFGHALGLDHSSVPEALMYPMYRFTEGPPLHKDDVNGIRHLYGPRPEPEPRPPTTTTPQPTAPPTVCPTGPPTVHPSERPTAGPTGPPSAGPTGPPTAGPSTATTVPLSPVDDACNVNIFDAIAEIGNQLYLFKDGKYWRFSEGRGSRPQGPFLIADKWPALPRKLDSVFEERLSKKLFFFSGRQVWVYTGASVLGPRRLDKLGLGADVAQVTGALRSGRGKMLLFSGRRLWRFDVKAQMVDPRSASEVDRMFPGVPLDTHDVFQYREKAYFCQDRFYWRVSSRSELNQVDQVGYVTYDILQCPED

Chain of C-C chemokine receptor type 5 (P51681 whole entry): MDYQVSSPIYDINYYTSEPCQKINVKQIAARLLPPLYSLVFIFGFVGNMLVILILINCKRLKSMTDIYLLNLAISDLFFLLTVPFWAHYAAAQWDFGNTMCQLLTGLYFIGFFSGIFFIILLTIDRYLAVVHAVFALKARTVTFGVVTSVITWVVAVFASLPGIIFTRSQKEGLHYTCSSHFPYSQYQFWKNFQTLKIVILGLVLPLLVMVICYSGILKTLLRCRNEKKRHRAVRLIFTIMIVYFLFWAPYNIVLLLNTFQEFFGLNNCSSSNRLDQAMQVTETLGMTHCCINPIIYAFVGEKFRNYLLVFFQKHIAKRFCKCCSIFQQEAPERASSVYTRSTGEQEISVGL
Chain of Mitogen-activated protein kinase 1 (P28482 whole entry): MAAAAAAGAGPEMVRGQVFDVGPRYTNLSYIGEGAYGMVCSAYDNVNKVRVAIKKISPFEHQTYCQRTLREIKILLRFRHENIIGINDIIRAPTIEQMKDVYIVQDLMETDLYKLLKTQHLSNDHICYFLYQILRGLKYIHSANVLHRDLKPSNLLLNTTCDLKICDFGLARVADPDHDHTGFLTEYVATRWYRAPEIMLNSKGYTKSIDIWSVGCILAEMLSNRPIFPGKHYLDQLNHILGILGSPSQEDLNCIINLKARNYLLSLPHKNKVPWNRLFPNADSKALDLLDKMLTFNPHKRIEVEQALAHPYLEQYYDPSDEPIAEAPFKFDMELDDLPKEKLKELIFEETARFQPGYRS

POVIDONE
Not Active: IC50 [1] | Ki [1] | IC50 [2] | Ki [2] | IC50 [3] | Ki [3] | IC50 [4] | Ki [4] | IC50 [5] | Ki [5] | IC50 [6] | Ki [6] | IC50 [7] | Ki [7] | IC50 [8] | Ki [8]

C=C(Cl)Cl [1,1-DICHLOROETHENE]
Not Active: IC50 [1] | Ki [1] | IC50 [2] | Ki [2] | IC50 [3] | IC50 [4] | IC50 [5] | IC50 [6] | IC50 [7] | Ki [7] | IC50 [8]

C#C[C@]1(O)CC[C@H]2[C@@H]3CCC4=CC(=O)CC[C@@H]4[C@H]3CC[C@@]21C [NORETHINDRONE]
Not Active: IC50 [1] | Ki [1] | IC50 [2] | Ki [2] | IC50 [3] | IC50 [4] | IC50 [5] | IC50 [6] | IC50 [7] | Ki [7] | IC50 [8]

C=CCN1CC[C@]23c4c5ccc(O)c4O[C@H]2/C(=N/N=C2\CC[C@@]4(O)[C@H]6Cc7ccc(O)c8c7[C@@]4(CCN6CC=C)[C@H]2O8)CC[C@@]3(O)[C@H]1C5 [NALOXONAZINE]
Not Active: IC50 [1] | Ki [1] | IC50 [2] | Ki [2] | IC50 [3] | IC50 [4] | IC50 [5] | IC50 [6] | IC50 [7] | Ki [7] | IC50 [8]

Oc1ncnc2[nH]ncc12 [ALLOPURINOL]
Not Active: IC50 [1] | Ki [1] | IC50 [2] | Ki [2] | IC50 [3] | IC50 [4] | IC50 [5] | IC50 [6] | IC50 [7] | Ki [7] | IC50 [8]

CCC1(c2ccccc2)C(=O)NC(=O)NC1=O [PHENOBARBITAL]
Not Active: IC50 [1] | Ki [1] | IC50 [2] | Ki [2] | IC50 [3] | IC50 [4] | IC50 [5] | IC50 [6] | IC50 [7] | Ki [7] | IC50 [8]

CHROMIC CHLORIDE
Not Active: IC50 [1] | Ki [1] | IC50 [2] | Ki [2] | IC50 [3] | Ki [3] | IC50 [4] | Ki [4] | IC50 [5] | Ki [5] | IC50 [6] | Ki [6] | IC50 [7] | Ki [7] | IC50 [8] | Ki [8]

CCCCCCNC(=O)n1cc(F)c(=O)[nH]c1=O [CARMOFUR]
Not Active: IC50 [1] | Ki [1] | IC50 [2] | Ki [2] | IC50 [3] | IC50 [4] | IC50 [5] | IC50 [6] | IC50 [7] | Ki [7] | IC50 [8]

O=C(O)CCc1nc(-c2ccccc2)c(-c2ccccc2)o1 [OXAPROZIN]
Not Active: IC50 [1] | Ki [1] | IC50 [2] | Ki [2] | IC50 [3] | IC50 [4] | IC50 [5] | IC50 [6] | IC50 [7] | Ki [7] | IC50 [8]

CCN1C[C@]2(COC)[C@H](O)C[C@H](OC)[C@@]34[C@@H]5C[C@@]6(O)[C@H](OC(=O)c7ccccc7)[C@@H]5[C@@](OC(C)=O)([C@@H]([C@H](OC)[C@H]23)[C@@H]14)[C@@H](O)[C@@H]6OC [ACONITINE]
Not Active: IC50 [1] | Ki [1] | IC50 [2] | Ki [2] | IC50 [3] | IC50 [4] | IC50 [5] | IC50 [6] | IC50 [7] | Ki [7] | IC50 [8]

Oc1ccccc1 [PHENOL]
Not Active: IC50 [1] | Ki [1] | IC50 [2] | Ki [2] | IC50 [3] | IC50 [4] | IC50 [5] | IC50 [6] | IC50 [7] | Ki [7] | IC50 [8]

Nc1nc(F)nc2c1ncn2[C@@H]1O[C@H](CO)[C@@H](O)[C@@H]1O [FLUDARABINE]
Not Active: IC50 [1] | Ki [1] | IC50 [2] | Ki [2] | IC50 [3] | IC50 [4] | IC50 [5] | IC50 [6] | IC50 [7] | Ki [7] | IC50 [8]

O=C1CN(/N=C/c2ccc([N+](=O)[O-])o2)C(=O)N1 [NITROFURANTOIN]
Not Active: IC50 [1] | Ki [1] | IC50 [2] | Ki [2] | IC50 [3] | IC50 [4] | IC50 [5] | IC50 [6] | IC50 [7] | Ki [7] | IC50 [8]

CC12CCC(CC1=O)C2(C)C (centres undefined) [CAMPHOR]
Not Active: IC50 [1] | Ki [1] | IC50 [2] | Ki [2] | IC50 [3] | IC50 [4] | IC50 [5] | IC50 [6] | IC50 [7] | Ki [7] | IC50 [8]

— ChEMBL document CHEMBL1909046, “DrugMatrix in vitro pharmacology data”
